Assay results published in ChEMBL document CHEMBL5365447, “Pronucleotides of 2',3'-Dideoxy-2',3'-Didehydrothymidine as Potent Anti-HIV Compounds” (J Med Chem, 2023).
The source made the active and inactive calls. The rule behind the calls is not given here.

Columns and labels:
[1] = Retention time of the compound by HPLC analysis; format: physicochemical
[2] = Chemical stability of the compound in phosphate buffer assessed as half life at pH 7.3 by HPLC analysis; format: physicochemical
[3] = Prodrug conversion in pH 7.3 phosphate buffer assessed as ((2S,5R)-5-(5-methyl-2,4-dioxo-3,4-dihydropyrimidin-1(2H)-yl)-2,5-dihydrofuran-2-yl)methyl tri-hydrogen diphosphate formation by measuring half life in presence of pig liver esterase by HPLC analysis; format: ADME
[4] = Prodrug conversion in human CEM/0 cell extract assessed as metabolite formation by measuring half life by HPLC analysis; format: ADME; settings: ccrf-cem
[5] = Prodrug conversion in human CEM/0 cell extract assessed as ((2S,5R)-5-(5-methyl-2,4-dioxo-3,4-dihydropyrimidin-1(2H)-yl)-2,5-dihydrofuran-2-yl)methyl tri-hydrogen diphosphate formation by HPLC analysis; format: ADME; settings: ccrf-cem
[6] = Prodrug conversion in human CEM/0 cell extract assessed as ((2S,5R)-5-(5-methyl-2,4-dioxo-3,4-dihydropyrimidin-1(2H)-yl)-2,5-dihydrofuran-2-yl)methyl tetrahydrogen triphosphate formation by HPLC analysis; format: ADME; settings: ccrf-cem
[7] = Cytotoxicity against human CEM cells assessed as reduction in cell viability incubated for 4 to 5 days by light microscopic analysis; format: toxicity, cell-based; settings: CEM cells (CCRF-CEM), time 4-5 day
[8] = Selectivity index, ratio of CC50 for human CEM cells to EC50 for HIV-2 ROD infected in thymidine kinase-deficient human CEM cells; format: toxicity; settings: read-out: Ratio CC50/EC50
[9] = system: Human immunodeficiency virus; experiment: Substrate activity at HIV reverse transcriptase measured after 4 hrs by electrophoresis based primer extension assay
[10] = biological target: T1, DNA polymerase alpha catalytic subunit (Homo sapiens) (UniProt P09884); experiment: Substrate activity at human DNA polymerase alpha measured after 4 hrs by electrophoresis based primer extension assay
T1 sequence (whole entry): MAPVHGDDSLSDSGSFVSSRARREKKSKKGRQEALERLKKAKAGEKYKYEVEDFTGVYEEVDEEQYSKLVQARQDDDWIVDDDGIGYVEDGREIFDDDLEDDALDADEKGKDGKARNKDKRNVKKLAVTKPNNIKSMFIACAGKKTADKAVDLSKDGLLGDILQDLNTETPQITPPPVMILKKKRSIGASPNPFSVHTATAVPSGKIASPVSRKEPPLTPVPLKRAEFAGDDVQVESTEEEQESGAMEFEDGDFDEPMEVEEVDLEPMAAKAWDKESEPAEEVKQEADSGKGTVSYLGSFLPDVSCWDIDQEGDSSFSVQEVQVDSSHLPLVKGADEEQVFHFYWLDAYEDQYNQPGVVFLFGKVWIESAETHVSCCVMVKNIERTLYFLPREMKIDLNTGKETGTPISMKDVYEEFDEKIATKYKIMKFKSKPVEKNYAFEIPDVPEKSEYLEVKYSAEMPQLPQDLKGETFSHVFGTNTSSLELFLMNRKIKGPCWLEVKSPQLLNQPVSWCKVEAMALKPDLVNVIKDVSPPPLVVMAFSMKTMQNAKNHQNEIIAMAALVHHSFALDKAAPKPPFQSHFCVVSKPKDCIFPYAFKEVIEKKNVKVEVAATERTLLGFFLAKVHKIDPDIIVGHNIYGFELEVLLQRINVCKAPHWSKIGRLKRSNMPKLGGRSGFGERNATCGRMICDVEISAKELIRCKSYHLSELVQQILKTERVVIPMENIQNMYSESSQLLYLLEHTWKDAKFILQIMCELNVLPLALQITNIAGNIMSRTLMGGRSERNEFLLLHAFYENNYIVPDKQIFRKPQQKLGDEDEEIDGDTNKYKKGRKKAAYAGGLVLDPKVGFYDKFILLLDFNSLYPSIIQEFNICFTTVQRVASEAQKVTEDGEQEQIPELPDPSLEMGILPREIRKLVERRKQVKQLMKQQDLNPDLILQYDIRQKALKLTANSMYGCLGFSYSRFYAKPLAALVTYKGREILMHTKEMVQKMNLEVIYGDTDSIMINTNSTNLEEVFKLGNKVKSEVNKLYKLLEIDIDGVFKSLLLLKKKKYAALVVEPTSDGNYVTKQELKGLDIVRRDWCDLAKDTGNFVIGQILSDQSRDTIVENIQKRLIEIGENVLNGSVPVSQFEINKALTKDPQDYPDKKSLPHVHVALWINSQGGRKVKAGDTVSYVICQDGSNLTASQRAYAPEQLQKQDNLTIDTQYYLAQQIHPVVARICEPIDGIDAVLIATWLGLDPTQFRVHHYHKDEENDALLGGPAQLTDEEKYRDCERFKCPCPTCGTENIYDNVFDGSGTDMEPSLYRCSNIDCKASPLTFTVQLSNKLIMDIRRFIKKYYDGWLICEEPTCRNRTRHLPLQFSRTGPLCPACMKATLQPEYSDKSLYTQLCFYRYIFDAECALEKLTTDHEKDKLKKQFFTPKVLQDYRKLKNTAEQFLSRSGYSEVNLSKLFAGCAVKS

[11] = biological target: DNA polymerase beta (Homo sapiens) (UniProt P06746); experiment: Substrate activity at human DNA polymerase beta measured after 4 hrs by electrophoresis based primer extension assay
[12] = biological target: T2, DNA polymerase subunit gamma-1 (Homo sapiens) (UniProt P54098); experiment: Substrate activity at human DNA polymerase gamma measured after 4 hrs by electrophoresis based primer extension assay
T2 sequence (whole entry): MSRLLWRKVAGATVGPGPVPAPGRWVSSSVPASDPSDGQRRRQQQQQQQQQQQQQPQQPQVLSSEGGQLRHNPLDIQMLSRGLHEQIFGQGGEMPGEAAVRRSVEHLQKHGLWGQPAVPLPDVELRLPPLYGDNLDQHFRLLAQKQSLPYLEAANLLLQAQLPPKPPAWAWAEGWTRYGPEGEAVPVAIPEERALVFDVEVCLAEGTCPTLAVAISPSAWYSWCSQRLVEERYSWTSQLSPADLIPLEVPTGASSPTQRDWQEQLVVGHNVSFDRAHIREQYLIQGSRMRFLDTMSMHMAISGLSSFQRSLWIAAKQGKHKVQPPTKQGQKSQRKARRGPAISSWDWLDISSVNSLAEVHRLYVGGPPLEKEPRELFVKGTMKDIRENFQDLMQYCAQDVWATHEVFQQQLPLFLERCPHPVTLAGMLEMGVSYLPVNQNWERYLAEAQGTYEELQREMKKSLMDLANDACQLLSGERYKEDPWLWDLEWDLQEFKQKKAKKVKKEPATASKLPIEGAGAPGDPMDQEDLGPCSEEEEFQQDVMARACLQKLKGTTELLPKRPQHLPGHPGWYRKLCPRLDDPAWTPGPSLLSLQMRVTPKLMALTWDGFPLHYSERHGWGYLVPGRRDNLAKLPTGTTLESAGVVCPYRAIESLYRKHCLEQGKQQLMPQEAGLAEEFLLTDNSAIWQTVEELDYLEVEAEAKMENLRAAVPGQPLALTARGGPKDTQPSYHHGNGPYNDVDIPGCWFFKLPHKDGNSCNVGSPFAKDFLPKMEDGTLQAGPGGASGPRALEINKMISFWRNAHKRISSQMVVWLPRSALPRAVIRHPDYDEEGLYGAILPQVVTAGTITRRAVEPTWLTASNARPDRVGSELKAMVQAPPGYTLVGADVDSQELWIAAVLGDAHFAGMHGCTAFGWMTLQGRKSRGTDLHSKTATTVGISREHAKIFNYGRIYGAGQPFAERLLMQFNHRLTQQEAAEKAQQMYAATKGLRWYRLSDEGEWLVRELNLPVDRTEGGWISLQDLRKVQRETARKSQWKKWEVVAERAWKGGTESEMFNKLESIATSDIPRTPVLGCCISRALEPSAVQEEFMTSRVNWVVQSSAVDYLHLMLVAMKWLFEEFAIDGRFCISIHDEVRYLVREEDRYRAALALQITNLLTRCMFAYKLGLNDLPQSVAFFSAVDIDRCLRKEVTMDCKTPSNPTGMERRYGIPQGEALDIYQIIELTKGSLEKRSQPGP

[13] = system: Human immunodeficiency virus 1; experiment: Potency index, ratio of 3'-deoxy-2',3'-dehydrothymidine EC50 to compound EC50 for antiviral activity against HIV-1 HE infected in wild-type human CEM/0 cells; format: functional
[14] = system: Human immunodeficiency virus 2; experiment: Potency index, ratio of 3'-deoxy-2',3'-dehydrothymidine EC50 to compound EC50 for antiviral activity against HIV-2 ROD infected in wild-type human CEM/0 cells; format: functional
[15] = system: Human immunodeficiency virus 2; experiment: Potency index, ratio of 3'-deoxy-2',3'-dehydrothymidine EC50 to compound EC50 for antiviral activity against HIV-2 ROD infected in thymidine kinase-deficient human CEM[…] cells; format: functional
[16] = Chemical stability of the compound in phosphate buffer saline assessed as half life at pH 7.3 by HPLC analysis; format: physicochemical; settings: phosphate buffered saline
[17] = Prodrug conversion in pH 7.3 phosphate buffer assessed as ((2S,5R)-5-(5-methyl-2,4-dioxo-3,4-dihydropyrimidin-1(2H)-yl)-2,5-dihydrofuran-2-yl)methyl dihydrogen phosphate formation by measuring half life in presence of pig liver esterase by HPLC analysis; format: ADME
[18] = Prodrug conversion in human CEM/0 cell extract assessed as ((2S,5R)-5-(5-methyl-2,4-dioxo-3,4-dihydropyrimidin-1(2H)-yl)-2,5-dihydrofuran-2-yl)methyl dihydrogen phosphate formation by HPLC analysis; format: ADME; settings: ccrf-cem
[19] = system: Human immunodeficiency virus 1; experiment: Antiviral activity against HIV-1 HE infected in wild-type human CEM/0 cells assessed as inhibition of virus-induced cytopathic effect incubated for 4 to 5 days by light microscopic analysis; format: functional, organism-based; settings: Human immunodeficiency virus 1, HE, CCRF-CEM
[20] = system: Human immunodeficiency virus 2; experiment: Antiviral activity against HIV-2 ROD infected in wild-type human CEM/0 cells assessed as inhibition of virus-induced cytopathic effect incubated for 4 to 5 days by light microscopic analysis; format: functional, organism-based; settings: Human immunodeficiency virus 2, ROD, CCRF-CEM
[21] = system: Human immunodeficiency virus 2; experiment: Antiviral activity against HIV-2 ROD infected in thymidine kinase-deficient human CEM cells assessed as inhibition of virus-induced cytopathic effect incubated for 4 to 5 days by light microscopic analysis; format: functional, organism-based; settings: Human immunodeficiency virus 2, ROD, CCRF-CEM

Row | SMILES | Retention_time [1] | half-life [2] | t1/2 [3] | t1/2 [4] | Drug metabolism [5] | Drug metabolism [6] | CC50 [7] | selectivity ratio [8] | Activity [9] | Activity [10] | Activity [11] | Activity [12] | half-life [16] | Drug metabolism [18] | EC50 [19] | EC50 [20] | EC50 [21] | t1/2 [17] | further results
1 | CCCCCCCCCCCCCCCCCCOP(=O)(OCCCC)OP(=O)(O)OP(=O)(O)OC[C@@H]1C=C[C@H](n2cc(C)c(=O)[nH]c2=O)O1.N.N (stereo not given in full) | 16.2 min | 990 h | > 150 h | > 10 h | Metabolite_Detected | Metabolite_Notdetected | 30000 nM | 938 | Active | inactive | inactive | inactive | – | – | – | – | – | – | Ratio EC50 [13]: 4; Ratio EC50 [14]: 4; Ratio EC50 [15]: 10000
2 | CCCCCCCCCCCCCCCCCCP(=O)(OCCCC)OP(=O)(O)OP(=O)(O)OC[C@@H]1C=C[C@H](n2cc(C)c(=O)[nH]c2=O)O1.N.N (stereo not given in full) | 15.9 min | > 1700 h | > 150 h | > 15 h | Metabolite_Detected | Metabolite_Notdetected | 33000 nM | – | inactive | inactive | inactive | inactive | – | – | – | – | – | – | –
3 | CCCCCCCCCCCCCCCCCCOP(=O)(OCCCCCCCC)OP(=O)(O)OC[C@@H]1C=C[C@H](n2cc(C)c(=O)[nH]c2=O)O1.N (stereo not given in full) | 20.8 min | – | – | – | Metabolite_Notdetected | – | 46500 nM | 4220 | – | inactive | inactive | inactive | > 41.7 days | Metabolite_Detected | 71 nM | 45 nM | 11 nM | – | Drug metabolism [17]: Metabolite_Notdetected; Drug metabolism [4]: Metabolite_Notdetected
4 | CCCCCCCCCCCCCCCCCCOP(=O)(OCCCC)OP(=O)(O)OC[C@@H]1C=C[C@H](n2cc(C)c(=O)[nH]c2=O)O1.N (stereo not given in full) | 18.9 min | – | – | > 18 h | Metabolite_Notdetected | – | 41300 nM | 37500 | inactive | inactive | inactive | inactive | > 41.7 days | Metabolite_Detected | 33 nM | 4 nM | 1 nM | > 150 h | –
5 | CCCCCCCCCCCCCCCCCCP(=O)(OCCCC)OP(=O)(O)OC[C@@H]1C=C[C@H](n2cc(C)c(=O)[nH]c2=O)O1.N (stereo not given in full) | 18.5 min | – | – | > 40 h | Metabolite_Notdetected | – | 42600 nM | 20300 | Active | inactive | inactive | inactive | > 125 days | Metabolite_Detected | 31 nM | 16 nM | 2 nM | > 150 h | –
